Experimental data from patent US5068247A, “2-aminopentanoic acid compounds and their use as immunosuppressants” (priority 1989, dated 1991).

Key:
[1] = test system: allo-reactive cytotoxic T cells in spleen of EL4-immunized BALB/c mice; experiment: suppression of allo-reactive cytotoxic T cells induced by immunization of mouse with allogenic cells; type: in vivo
Method: Male 5- to 7-week-old BALB/c mice (H-2^d) were immunized with leukemia cell EL4 derived from C57BL/6 mice (H-2^b) (10^7 cells/mouse, intraperitoneal administration), and the test substance was administered intraperitoneally 5 times at the doses of 0.001 to 3 mg/kg/day or orally at the doses of 0.3 to 10 mg/kg/day from the day of immunization. Nine to ten days after immunization, the spleen was resected from the mice to prepare a single cell suspension and the suspension was used as effector cell suspension. The ^51 Cr-release assay was carried out in the same way as in Experiment Example 3, using EL4 cells as the target cells to measure the cytotoxic activity.
The activity of allo-reactive cytotoxic T cell is indicated by lytic unit (LU) per spleen. One lytic unit (LU) is defined as the number of effector cells required to cause 25% lysis of 5×10^3 target cells. At the same time, the body weight of mouse and number of spleen cells were also determined.

[2] = cytotoxicity to cultured tumor cell line K562; settings: human, k562 cells, Suppression
Method: (§1) Cytotoxicity to various human tumor cell lines was examined as follows:
(§2) Cells of human cell lines, K562, MOLT4, U937 and HL60 were respectively suspended to the concentration of 4×10^5 cells/ml in the RPMI1640 culture medium supplemented with 20% FCS. Fifty μl of each suspension was added to each well of a 96-well microtest plate to which 50 μl of the test solution had been added. After culturing the suspension at 37° C. in an atmosphere of 5% carbon dioxide for 72 hours, the absorbancy at 570 nm was measured in the same way as with the colorimetry using MTT in Experiment Example 1, and the percent suppression was calculated by the following formula, which was used as an index of cytotoxicity.

K562 = experiment: cytotoxicity to cultured tumor cell line K562
Method: as §1, §2

[3] = test system: IL-2 production in mouse allogenic MLC; experiment: suppression of IL-2 production in mouse allogenic MLC; type: cell-based
Method: Mouse allogenic MLC was carried out as follows:
After termination of culture, the supernatant was collected and used as the supernatant of mouse allogenic MLC.
The IL-2 and IL-3 activities in the supernatant of mouse allogenic MLC were assayed in the same way as in Experiment Example 4.

[4] = cytotoxicity to cultured tumor cell line MOLT4; type: cell-based, human; settings: human, molt4 cells, read-out: Suppression
Method: as §1, §2

MOLT4 = experiment: cytotoxicity to cultured tumor cell line MOLT4; type: cell-based, human
Method: as §1, §2

U937 = experiment: cytotoxicity to cultured tumor cell line U937; type: cell-based, human
[5] = test system: allo-specific cytotoxic antibody in serum of EL4-immunized BALB/c mice; experiment: suppression of allo-specific cytotoxic antibody production induced by allogenic cell immunization of mouse; type: in vivo
Method: Male 5- to 7-week-old BALB/c mice were immunized with leukemia cell EL4 derived from C57BL/6 mice (10^7 cells/mouse, intraperitoneal administration) in the same way as in Experiment Example 9, and the […] Nine to ten days after immunization, a serum was collected from the mice. Fifty μl of the two-fold serial dilution of the serum, 50 μl of a guinea pig complement and EL4 cell suspension labelled with ^51 Cr as the target cell (5×10^4 cells/ml, 100 μl) were together added to a 96-well microtest plate. After incubation at 37° C. for 1 hour, the amount of ^51 Cr released in the supernatant was measured, and the complement-dependent cytotoxicity was calculated by the following formula. [formula]
The value of allo-specific cytotoxic antibody determined as above was expressed by the titer calculated on the basis of the concentration at which the releasing amount of ^51 Cr was 50% of that of ^51 Cr-labelled target cells treated with 0.1 N HCl.

[6] = 0.3 mg/kg/day po × 10, Table 9E
[7] = 0.003 mg/kg/day po × 10, Table 10D
[8] = 0.01 mg/kg/day po × 5, Table 10C
[9] = 0.01 mg/kg/day po × 10, Table 10D
[10] = 0.03 mg/kg/day po × 5, Table 10C
[11] = 0.03 mg/kg/day po × 10, Table 10D
[12] = 0.1 mg/kg/day po × 5, Table 10C
[13] = 0.1 mg/kg/day po × 10, Table 10D
[14] = 0.3 mg/kg/day po × 5, Table 10C
[15] = 0.3 mg/kg/day po × 10, Table 10D

CCCCCCCCCCCCC/C=C/C[C@@H](O)[C@H](O)[C@@](N)(CO)C(=O)O [Example 5]
Number of spleen cells ([1]; 0.3 mg/kg/day po × 5, Table 9D): 1.6 ± 0.3 × 10^8
Body weight 10 days after immunization [1, 6]: 24.2 ± 1.3 g
Cytotoxic T cell activity [1, 6]: 651 ± 257 LU/spleen
Cytotoxic T cell activity, suppression [1, 6]: 76.6%
Number of spleen cells [1, 6]: 1.6 ± 0.3 × 10^8
Body weight 10 days after immunization ([1]; 1 mg/kg/day po × 5, Table 9D): 25.0 ± 1.4 g
Cytotoxic T cell activity ([1]; 1 mg/kg/day po × 5, Table 9D): 421 ± 12 LU/spleen
Cytotoxic T cell activity, suppression ([1]; 1 mg/kg/day po × 5, Table 9D): 72.5%
Number of spleen cells ([1]; 1 mg/kg/day po × 5, Table 9D): 1.7 ± 0.3 × 10^8
Body weight 10 days after immunization ([1]; 1 mg/kg/day po × 10, Table 9E): 22.4 ± 0.5 g
Cytotoxic T cell activity ([1]; 1 mg/kg/day po × 10, Table 9E): 269 ± 179 LU/spleen
Cytotoxic T cell activity, suppression ([1]; 1 mg/kg/day po × 10, Table 9E): 90.3%
Number of spleen cells ([1]; 1 mg/kg/day po × 10, Table 9E): 1.5 ± 0.3 × 10^8
induction of allo-reactive cytotoxic T cells (in words) ([1]; 5 times intraperitoneal or oral): strongly suppresses the induction of allo-reactive cytotoxic T cells
induction of allo-reactive cytotoxic T cells (in words), 10 oral administrations ([1]; 10 times oral, up to 0.03 mg/kg): significant suppressive activity up to the dose of 0.03 mg/kg
cytotoxicity at 72 h ([2]; 0.1 μg/ml): 2.2%
cytotoxicity at 72 h ([2]; 1 μg/ml): 4%
cytotoxicity at 72 h ([2]; 10 μg/ml): 4.7%
Absorbancy (K562; 0.1 μg/ml): 1.111 ± 0.037
Absorbancy (K562; 1 μg/ml): 1.090 ± 0.044
Absorbancy (K562; 10 μg/ml): 1.083 ± 0.033
IL-2 activity ([3]; 0.0001 μg/ml): 3.2 U/ml
IL-2 activity ([3]; 0.001 μg/ml): 2.9 U/ml
IL-2 activity ([3]; 0.01 μg/ml): < 1.0 U/ml
IL-2 activity ([3]; 0.1 μg/ml): < 1.0 U/ml
IL-2 activity ([3]; 1 μg/ml): < 1.0 U/ml
inhibition at 0.0001 µg/mL ([3]; Mus musculus, 48 h, 0.0001 μg/ml): 28.9%
inhibition at 0.001 µg/mL ([3]; Mus musculus, 48 h, 0.001 μg/ml): 35.6%
inhibition at 0.01 µg/mL ([3]; Mus musculus, 48 h, 0.01 μg/ml): 100%
inhibition at 0.1 µg/mL ([3]; Mus musculus, 48 h, 0.1 μg/ml): 100%
inhibition at 1 µg/mL ([3]; Mus musculus, 48 h, 1 μg/ml): 100%
cytotoxicity at 72 h ([4]; 0.1 μg/ml): 10.7%
cytotoxicity at 72 h ([4]; 1 μg/ml): 12.2%
cytotoxicity at 72 h ([4]; 10 μg/ml): 16.2%
Absorbancy (MOLT4; 0.1 μg/ml): 1.031 ± 0.035
Absorbancy (MOLT4; 1 μg/ml): 1.013 ± 0.013
Absorbancy (MOLT4; 10 μg/ml): 0.967 ± 0.006
Absorbancy (U937; 0.1 μg/ml): 0.695 ± 0.032
Absorbancy (U937; 1 μg/ml): 0.699 ± 0.044
Absorbancy (U937; 10 μg/ml): 0.684 ± 0.038
Allogenic cell-specific antibody in serum, suppression [5, 7]: 28.3%
Allogenic cell-specific antibody in serum, titer [5, 7]: 147 ± 43
Allogenic cell-specific antibody in serum, suppression [5, 8]: 0%
Allogenic cell-specific antibody in serum, titer [5, 8]: 318 ± 75
Allogenic cell-specific antibody in serum, suppression [5, 9]: 45.4%
Allogenic cell-specific antibody in serum, titer [5, 9]: 112 ± 66
Allogenic cell-specific antibody in serum, suppression [5, 10]: 37.8%
Allogenic cell-specific antibody in serum, titer [5, 10]: 186 ± 100
Allogenic cell-specific antibody in serum, suppression [5, 11]: 40.0%
Allogenic cell-specific antibody in serum, titer [5, 11]: 123 ± 43
Allogenic cell-specific antibody in serum, suppression [5, 12]: 61.5%
Allogenic cell-specific antibody in serum, titer [5, 12]: 115 ± 19
Allogenic cell-specific antibody in serum, suppression [5, 13]: 71.2%
Allogenic cell-specific antibody in serum, titer [5, 13]: 59 ± 38
Allogenic cell-specific antibody in serum, suppression [5, 14]: 69.6%
Allogenic cell-specific antibody in serum, titer [5, 14]: 91 ± 67
Allogenic cell-specific antibody in serum, suppression [5, 15]: 76.1%
Allogenic cell-specific antibody in serum, titer [5, 15]: 49 ± 26
Allogenic cell-specific antibody in serum, suppression ([5]; 1 mg/kg/day po × 5, Table 10C): 82.5%
Allogenic cell-specific antibody in serum, titer ([5]; 1 mg/kg/day po × 5, Table 10C): 52 ± 27
Allogenic cell-specific antibody in serum, suppression ([5]; 1 mg/kg/day po × 10, Table 10D): 76.6%
Allogenic cell-specific antibody in serum, titer ([5]; 1 mg/kg/day po × 10, Table 10D): 48 ± 37
allo-specific cytotoxic antibody production in serum (in words) ([5]; intraperitoneal or oral, Tables 10A to 10D): strongly suppresses allo-specific cytotoxic antibody production in serum
